{
  "source": "patent US20200368234A1",
  "about": "“PHOTORECEPTOR GENE MODULATOR PHOTOREGULIN 3 FOR TREATMENT OF RETINAL DISEASE” (University of Washington, priority 2017, published 2020)",
  "key": {"photoreceptors": {"test_system": "photoreceptors", "test": "Electron microscopy of photoreceptor morphology in wild type mice after PR3", "format": "in vivo", "conditions": "10 mg/kg i.p. for 3 consecutive days from P11, EM at P14", "experimental": "FIG. 2C compares electron microscope micrographs of retinal sections of wild type mice treated with 10 mg/kg PR3 or DMSO vehicle. Compared to controls, PR3 retinas have arrested inner and outer segment development and less compact heterochromatin in the ONL. Scale bars represent 10 μm (top) and 2 μm (bottom).\nElectron microscopy (EM) was used to perform an ultrastructural analysis of photoreceptor morphology after PR3 treatment. Wild type mice were intraperitoneally injected with vehicle or PR3 for 3 consecutive days starting at P11. At P14, 24 h after the third injection, the mice were euthanized and processed their retinas for EM. Photoreceptor outer segments begin to form during the second and third postnatal week; genetic loss-of-function mutations in Nr2e3 lead to an impairment in rod outer segment formation.\nPhotoregulin3 was identified by searching previous small molecule screens with SciFinder and PubChem for Nr2e3 interacting molecules. It was initially obtained from ChemDiv and then synthesized and purified in large quantities in the lab after initial screening. For in vivo experiments, mice were injected intraperitoneally with PR3 dissolved in DMSO at 10 mg/kg.\nMice were euthanized by CO2, and then perfused with 0.9% saline followed by 4% glutaraldehyde in 0.1 M sodium cacodylate buffer. Eye cups were fixed in 4% glutaraldehyde in 0.1 M sodium cacodylate buffer, washed with 0.1 M sodium cacodylate buffer, and then post-fixed in 2% osmium tetroxide. After fixation, eye cups were washed with water, dehydrated through a graded series of ethanol, incubated in propylene oxide and then epon araidite, polymerized overnight at 60° C., and then sectioned at a thickness of 70 nm. Images were obtained using a JEOL JEM-1230 electron microscope."}, "Rhodopsin [1]": {"test_system": "Rhodopsin", "test": "Rhodopsin protein expression (immunofluorescence assay) in dissociated retinal cell cultures", "format": "cell-based", "conditions": "P5 mouse dissociated retinal cultures, 2 days treatment, vs DMSO and PR1", "from_the_text": "(§1) In order to identify compounds that may target Nr2e3 a cheminformatic strategy was used to screen hit compounds previously identified to interact with recombinant Nr2e3 in transfected CHO-S cells in a luciferase-based assay (PubChem Assay IDs: 602229, 624378, 624394, and 651849). As a secondary screen for initial hits, dissociated primary retinal cell cultures were used and assayed Rhodopsin, because it is a well-defined target of Nr2e3 signaling and is expressed at high levels exclusively in rod photoreceptors. Retina were dissociated from postnatal day 5 (P5) mice and cultured them in media containing the small molecules. After treatment for 2 days, the cells were collected for qPCR analysis and quantified Rhodopsin expression. […] This finding was confirmed with an immunofluorescence assay to examine Rhodopsin protein expression in dissociated retinal cultures from P5 mice.\nRetinas were dissected from postnatal day 5 (P5) mice and dissociated by treatment with 0.5% Trypsin diluted in calcium- and magnesium-free HBSS from 10 minutes at 37° C. Trypsin was inactivated by adding an equal volume of FBS and cells were pelleted by centrifugation at 4° C. and resuspended in media (Neurobasal-A containing 1% FBS, 1% N2, 1% B27, 1% Pen/Strep, and 0.5% L-glutamine). For qPCR, cells were plated into 24-well tissue culture plates at a density of 1 retina/well (see qPCR section below). […]"}, "Rhodopsin [2]": {"test_system": "Rhodopsin", "test": "Rhodopsin mRNA expression (qPCR) in dissociated retinal cell cultures", "format": "cell-based", "conditions": "P5 mouse dissociated retinal cultures, 2 days treatment, vs DMSO and PR1", "from_the_text": "as §1, with “mice. […]” for “mice.”\nRNA from retinas was isolated using TRIzol (Invitrogen) and cDNA was synthesized using the iScript cDNA synthesis kit (Bio-Rad). SSO Fast (Bio-Rad) was used for quantitative real-time PCR. For analysis, values were normalized to Gapdh (ΔCt) and ΔΔCt between DMSO and compound-treated samples was expressed as percent of DMSO treated controls (100*2^ΔΔCt). […]"}},
  "data": [
    {"compound": "COc1cc2nc(CN3CC=C(c4ccccc4)CC3)nc(O)c2cc1OC", "note": "[PR3]", "values": [
      {"measurement": "heterochromatin of rod nuclei (EM)", "setting": "photoreceptors", "value": "smaller patches of densely packed heterochromatin compared to DMSO retinas"},
      {"measurement": "photoreceptor apoptosis / cell death in ONL nuclei (EM)", "setting": "photoreceptors", "value": "not due to an increase in cell death"},
      {"measurement": "photoreceptor outer segment development (EM)", "setting": "photoreceptors", "value": "prevented outer segment development"},
      {"measurement": "Rhodopsin protein expression", "setting": "Rhodopsin [1]", "value": "reduced expression of Rhodopsin compared to DMSO vehicle and PR1"},
      {"measurement": "Rhodopsin mRNA expression", "setting": "Rhodopsin [2]", "value": "robust reduction in Rhodopsin compared to DMSO and PR1 treatment at all concentrations"}
    ]}
  ]
}
